Results published in ChEMBL document CHEMBL3612003, “The interaction of 4-thiazolidinone derivatives containing indolin-2-one moiety with P-glycoprotein studied using K562 cell lines” (Eur J Med Chem, 2015).

Experiments:
[1] = test system: K562; test: Resistance index, ratio of IC50 for drug-resistant human K562/ADR cells to IC50 for drug-sensitive human K562 cells; assay type: functional
[2] = Cytotoxicity against human drug-resistant K562/ADR cells expressing high levels of P-glycoprotein assessed as reduction in cell viability incubated for 48 hrs by SRB assay; assay type: functional, cell-based
[3] = test system: K562; test: Cytotoxicity against human drug-sensitive K562 cells assessed as reduction in cell viability incubated for 48 hrs by SRB assay; assay type: functional, cell-based; settings: K562, 48 h
[4] = target: ATP-dependent translocase ABCB1 (Homo sapiens, UniProt P08183); test: Inhibition of P-glycoprotein in human drug-resistant K562/ADR cells assessed as reduction in P-gp mediated rhodamine 123 efflux by spectrofluorometry; assay type: cell-based
Chain of ATP-dependent translocase ABCB1 (P08183 whole entry): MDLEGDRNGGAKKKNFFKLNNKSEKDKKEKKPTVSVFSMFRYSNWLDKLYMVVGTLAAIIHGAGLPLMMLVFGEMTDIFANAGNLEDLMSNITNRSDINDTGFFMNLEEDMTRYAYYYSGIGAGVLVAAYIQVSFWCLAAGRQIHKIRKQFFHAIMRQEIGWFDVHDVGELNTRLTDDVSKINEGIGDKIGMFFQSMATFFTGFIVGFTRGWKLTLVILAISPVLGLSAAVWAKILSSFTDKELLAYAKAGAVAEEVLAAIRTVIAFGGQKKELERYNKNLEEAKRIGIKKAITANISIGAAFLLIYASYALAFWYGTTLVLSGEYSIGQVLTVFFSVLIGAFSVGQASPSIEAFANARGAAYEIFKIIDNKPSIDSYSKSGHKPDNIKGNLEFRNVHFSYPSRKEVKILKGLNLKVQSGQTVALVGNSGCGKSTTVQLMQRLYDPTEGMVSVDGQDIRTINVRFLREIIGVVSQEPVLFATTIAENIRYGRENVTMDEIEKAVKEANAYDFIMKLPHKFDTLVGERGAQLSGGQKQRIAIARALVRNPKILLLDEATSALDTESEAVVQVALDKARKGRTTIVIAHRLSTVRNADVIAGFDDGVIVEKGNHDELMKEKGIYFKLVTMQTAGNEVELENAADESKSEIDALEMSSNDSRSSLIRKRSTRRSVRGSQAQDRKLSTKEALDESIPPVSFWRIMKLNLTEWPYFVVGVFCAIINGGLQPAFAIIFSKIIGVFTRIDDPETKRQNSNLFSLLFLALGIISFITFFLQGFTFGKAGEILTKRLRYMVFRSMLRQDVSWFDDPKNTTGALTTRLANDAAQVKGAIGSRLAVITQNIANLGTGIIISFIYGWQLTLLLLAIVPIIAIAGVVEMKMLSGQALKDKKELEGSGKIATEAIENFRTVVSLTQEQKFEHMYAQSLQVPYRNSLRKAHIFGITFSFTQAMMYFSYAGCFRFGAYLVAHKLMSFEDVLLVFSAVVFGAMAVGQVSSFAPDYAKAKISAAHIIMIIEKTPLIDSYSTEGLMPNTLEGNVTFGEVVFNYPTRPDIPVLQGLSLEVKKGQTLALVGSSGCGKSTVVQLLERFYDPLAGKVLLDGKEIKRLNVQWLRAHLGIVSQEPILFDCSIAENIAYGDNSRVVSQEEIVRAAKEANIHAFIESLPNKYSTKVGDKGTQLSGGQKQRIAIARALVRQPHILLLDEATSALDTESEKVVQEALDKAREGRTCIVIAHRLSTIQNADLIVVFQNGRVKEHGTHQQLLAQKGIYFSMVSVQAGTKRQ

| Structure (SMILES) | Ratio IC50 [1] | IC50 [2] [nM] | IC50 [3] [nM] | Ki [4] [nM] |
| --- | --- | --- | --- | --- |
| CCN(CC)CCCn1c(=O)/c(=C/c2ccccc2O)s/c1=C1/C(=O)Nc2ccc(C)cc21 | 2.07 | 30600 | 14800 | 1710 |
| CN(C)CCn1c(=O)/c(=C/c2ccc(O)cc2)s/c1=C1/C(=O)Nc2ccccc21 | 1.44 | 6160 | 4280 | > 2230 |
| CCN(CC)CCCn1c(=O)/c(=C/c2ccc3c(c2)OCO3)s/c1=C1/C(=O)Nc2ccccc21 | 5.53 | 7950 | 1440 | 480 |
| CCN(CC)CCCn1c(=O)/c(=C/c2ccc3c(c2)OCO3)s/c1=C1/C(=O)Nc2ccc(C)cc21 | 2.46 | 5030 | 2040 | 940 |
| CCN(CC)CCCn1c(=O)/c(=C/c2ccc3c(c2)OCO3)s/c1=C1/C(=O)Nc2ccc(F)cc21 | 1.7 | 12500 | 7380 | > 2230 |
| CCN(CC)CCCn1c(=O)/c(=C/c2ccc3c(c2)OCO3)s/c1=C1/C(=O)Nc2cc(F)ccc21 | 1.32 | 2980 | 2260 | > 2230 |
| CCN(CC)CCCn1c(=O)/c(=C/c2ccc3c(c2)OCO3)s/c1=C1/C(=O)Nc2ccc(Cl)cc21 | 1.04 | 5050 | 4860 | 1780 |
| CCN(CC)CCCn1c(=O)/c(=C/c2ccc(F)c(F)c2)s/c1=C1/C(=O)Nc2ccc(F)cc21 | 0.48 | 6480 | 13400 | > 2230 |
| Cc1ccc2c(c1)/C(=c1\s/c(=C\c3ccc(O)cc3)c(=O)n1CCN(C)C)C(=O)N2 | 1.01 | 6800 | 6740 | > 2230 |
| CCN(CC)CCCn1c(=O)/c(=C/c2ccc(F)cc2F)s/c1=C1/C(=O)Nc2cc(F)ccc21 | 1.12 | 4120 | 3690 | 1010 |
| CCN(CC)CCCn1c(=O)/c(=C/c2cc(OC)c(OC)c(OC)c2)s/c1=C1/C(=O)Nc2ccccc21 | 2.58 | 6650 | 2580 | 730 |
| CCN(CC)CCCn1c(=O)/c(=C/c2cc(OC)c(OC)c(OC)c2)s/c1=C1/C(=O)Nc2ccc(C)cc21 | 0.48 | 2020 | 4170 | 320 |
| CCN(CC)CCCn1c(=O)/c(=C/c2cc(OC)c(OC)c(OC)c2)s/c1=C1/C(=O)Nc2ccc(F)cc21 | 1.2 | 2860 | 2390 | 120 |
| CCN(CC)CCCn1c(=O)/c(=C/c2cc(OC)c(OC)c(OC)c2)s/c1=C1/C(=O)Nc2cc(F)ccc21 | 1.39 | 1640 | 1180 | 470 |
| CCN(CC)CCCn1c(=O)/c(=C/c2cc(OC)c(OC)c(OC)c2)s/c1=C1/C(=O)Nc2ccc(Cl)cc21 | 2.02 | 1650 | 820 | 220 |
| CN(C)CCn1c(=O)/c(=C/c2ccc(O)cc2)s/c1=C1/C(=O)Nc2ccc(F)cc21 | 4.73 | 6140 | 1300 | 1340 |
| CN(C)CCn1c(=O)/c(=C/c2ccc(O)cc2)s/c1=C1/C(=O)Nc2cc(F)ccc21 | 1.28 | 7160 | 5590 | > 2230 |
| CN(C)CCn1c(=O)/c(=C/c2ccc3c(c2)OCO3)s/c1=C1/C(=O)Nc2ccccc21 | 0.59 | 780 | 1320 | > 2230 |
| CCN(CC)CCCn1c(=O)/c(=C/c2ccc(O)cc2)s/c1=C1/C(=O)Nc2ccc(Cl)cc21 | 1.98 | 48800 | 24600 | > 2230 |
| CCN(CC)CCCn1c(=O)/c(=C/c2ccccc2O)s/c1=C1\C(=O)Nc2ccc(C)cc21 | 2.07 | 30600 | 14800 | 1710 |

| Structure (SMILES) | Ratio IC50 [1] | IC50 [2] [nM] | IC50 [3] [nM] | Ki [4] [nM] |
| --- | --- | --- | --- | --- |
| CN(C)CCn1c(=O)/c(=C/c2ccc(O)cc2)s/c1=C1\C(=O)Nc2ccccc21 | 1.44 | 6160 | 4280 | > 2230 |
| CCN(CC)CCCn1c(=O)/c(=C/c2ccc3c(c2)OCO3)s/c1=C1\C(=O)Nc2ccccc21 | 5.53 | 7950 | 1440 | 480 |
| CCN(CC)CCCn1c(=O)/c(=C/c2ccc3c(c2)OCO3)s/c1=C1\C(=O)Nc2ccc(C)cc21 | 2.46 | 5030 | 2040 | 940 |
| CCN(CC)CCCn1c(=O)/c(=C/c2ccc3c(c2)OCO3)s/c1=C1\C(=O)Nc2ccc(F)cc21 | 1.7 | 12500 | 7380 | > 2230 |
| CCN(CC)CCCn1c(=O)/c(=C/c2ccc3c(c2)OCO3)s/c1=C1\C(=O)Nc2cc(F)ccc21 | 1.32 | 2980 | 2260 | > 2230 |
| CCN(CC)CCCn1c(=O)/c(=C/c2ccc3c(c2)OCO3)s/c1=C1\C(=O)Nc2ccc(Cl)cc21 | 1.04 | 5050 | 4860 | 1780 |
| CCN(CC)CCCn1c(=O)/c(=C/c2ccc(F)c(F)c2)s/c1=C1\C(=O)Nc2ccc(F)cc21 | 0.48 | 6480 | 13400 | > 2230 |
| Cc1ccc2c(c1)/C(=c1/s/c(=C\c3ccc(O)cc3)c(=O)n1CCN(C)C)C(=O)N2 | 1.01 | 6800 | 6740 | > 2230 |
| CCN(CC)CCCn1c(=O)/c(=C/c2ccc(F)cc2F)s/c1=C1\C(=O)Nc2cc(F)ccc21 | 1.12 | 4120 | 3690 | 1010 |
| CCN(CC)CCCn1c(=O)/c(=C/c2cc(OC)c(OC)c(OC)c2)s/c1=C1\C(=O)Nc2ccccc21 | 2.58 | 6650 | 2580 | 730 |
| CCN(CC)CCCn1c(=O)/c(=C/c2cc(OC)c(OC)c(OC)c2)s/c1=C1\C(=O)Nc2ccc(C)cc21 | 0.48 | 2020 | 4170 | 320 |
| CCN(CC)CCCn1c(=O)/c(=C/c2cc(OC)c(OC)c(OC)c2)s/c1=C1\C(=O)Nc2ccc(F)cc21 | 1.2 | 2860 | 2390 | 120 |
| CCN(CC)CCCn1c(=O)/c(=C/c2cc(OC)c(OC)c(OC)c2)s/c1=C1\C(=O)Nc2cc(F)ccc21 | 1.39 | 1640 | 1180 | 470 |
| CCN(CC)CCCn1c(=O)/c(=C/c2cc(OC)c(OC)c(OC)c2)s/c1=C1\C(=O)Nc2ccc(Cl)cc21 | 2.02 | 1650 | 820 | 220 |
| CN(C)CCn1c(=O)/c(=C/c2ccc(O)cc2)s/c1=C1\C(=O)Nc2ccc(F)cc21 | 4.73 | 6140 | 1300 | 1340 |
| CN(C)CCn1c(=O)/c(=C/c2ccc(O)cc2)s/c1=C1\C(=O)Nc2cc(F)ccc21 | 1.28 | 7160 | 5590 | > 2230 |
| CN(C)CCn1c(=O)/c(=C/c2ccc3c(c2)OCO3)s/c1=C1\C(=O)Nc2ccccc21 | 0.59 | 780 | 1320 | > 2230 |
| CCN(CC)CCCn1c(=O)/c(=C/c2ccc(O)cc2)s/c1=C1\C(=O)Nc2ccc(Cl)cc21 | 1.98 | 48800 | 24600 | > 2230 |
| COc1cccc2c1C(=O)c1c(O)c3c(c(O)c1C2=O)C[C@@](O)(C(=O)CO)C[C@@H]3O[C@H]1C[C@H](N)[C@H](O)[C@H](C)O1 [DOXORUBICIN] | 6.75 |  |  |  |
